Legend:
[1] = in vitro; conditions: African green monkey
Method: Cell viability was detected by the 3-(4,5-dimethyl-2-thiazolyl)-2,5-diphenyl-2H-tetrazolium bromide (MTT) assay according to a previously described method [48]. Briefly, cells were seeded in 96-well plates at a density of 1 × 10^4 cells per well and cultured at 37 °C for 24 h, followed by exposure to the serially diluted fidaxomicin or ribavirin separately for 48 h. Cell survival rate was determined by MTT reduction assay according to the manufacturer’s protocol (Invitrogen). The 50% cytotoxic concentration (CC50) was defined as the compound concentration required to inhibit the cell growth by 50% compared with the control assay. The assay was performed in triplicates in three independent experiments.

[2] = tested on: ZIKV (ZG-01); experiment: Western blotting of ZIKV proteins in infected SNB19 cells; format: cell-based, Zika virus
Method: Tissue specimens obtained from mice or cells were lysed with RIPA lysis buffer (Millipore, Bedford, MA) containing a cocktail of protease and phosphatase inhibitors (Sigma-Aldrich, St. Louis, MO, USA). Protein concentrations were measured with a bicinchoninic acid (BCA) protein assay (Thermo Fisher Scientific, Rockford, IL, USA). Protein samples were separated by sodium dodecyl sulfate-polyacrylamide gel electrophoresis (SDS-PAGE) and transferred onto a polyvinylidene difluoride (PVDF) membrane. Non-specific antibody binding sites were blocked with 5% non-fat milk in Tris-buffered saline (TBS) (20 mM Tris-HCl [pH 7.6], 135 mM NaCl, and 0.1% Tween 20) for 1 h at room temperature and then incubated with the following primary antibodies: anti-STAT2 (1:1000, sc166201, Santa Cruz Biotechnology, Santa Cruz, CA, USA), anti-ZIKV E (1:1000, BF-1176-56, BioFront Technologies, Tallahassee, USA), anti-ZIKV NS5 (1:1000, BF-6A1-100UG, BioFront), and anti-ZIKV NS3 (1:1000, GTX133309, GeneTex, Alton Pkwy, Irvine, CA, USA). Anti-GAPDH (1:2000, ab181602, Abcam, Cambridge, MA, USA) or mouse anti-GAPDH (1:1000, ab9484, Abcam) was used as a loading control. […] The relative protein level was quantified by densitometry and normalized to GAPDH or mGAPDH level using Image J software (NIH, Bethesda, MD, USA).

[3] = From the text: a. […] Data are expressed as mean ± SD. WBC: white blood cells; Lymph: lymphocytes; Mon: monocytes; Gran: granulocytes; RBC: red blood cells; HGB: hemoglobin concentration; HCT: hematocrit; MCV: mean corpuscular volume; MCH: mean corpuscular hemoglobin; MCHC: mean corpuscular hemoglobin concentration; RDW: red blood cell distribution width; PLT: platelets; MPV: mean platelet volume; PDW: platelet distribution width.
a. […] Data are expressed as mean ± SD. ALT: alanine aminotransferase; AST: aspartate aminotransferase; T-BIL: total bilirubin; ALB: albumin; γ-GT: γ-glutamyltransferase; ALP: alkaline phosphatase; TBA: total bile acid; BUN: blood urea nitrogen; UA: uric acid; CR: creatinine; T-CHO: total cholesterol; TG: triglyceride.
a. […] Data are expressed as mean ± SD.

## CCc1c(Cl)c(O)c(Cl)c(O)c1C(=O)O[C@H]1[C@H](O)[C@H](OC)[C@H](OC/C2=C\C=C\C[C@H](O)/C(C)=C/[C@H](CC)[C@@H](O[C@@H]3OC(C)(C)[C@@H](OC(=O)C(C)C)[C@H](O)[C@@H]3O)/C(C)=C/C(C)=C/C[C@@H]([C@@H](C)O)OC2=O)O[C@@H]1C [Fidaxomicin]
[1]
  CC50 at 48 h: 126 ± 10.3 µM
[2]; SNB19 cell lysates, time-dependent
  amount of ZIKV NS3 protein: decreased
[2]; SNB19 cells, MOI 1.0 and 2.0
  ZIKV NS5 and E proteins: decreased
[3]; C57BL/6J (Ifnar1-/-), mouse, in vivo, 10 days
  maximum non-toxic dose: > 200 mg/kg
[3]; Ifnar1-/- C57BL/6J mice, 200 mg/kg, 10-day treatment, mean ± SD
  MPV: 4.95 ± 0.59 fL
[3]; mouse, in vivo, 200 mg/kg
  ALB: 29.11 ± 5.19 g/L
  ALP: 185.3±19.2 U/L
  ALT: 39.1±4.22 U/L
  AST: 130.74±18.3 U/L
  BUN: 31.6 ± 3.54 mg/dL
  CR: 17.62 ± 1.84 µmol/L
  Gran#: 0.92±0.23 10^9/L
  Gran%: 19.82±4.42%
  HCT: 38.96±2.72%
  HGB: 124.14 ± 14.36 g/L
  Lymph#: 3.21±1.01 10^9/L
  Lymph%: 75.75±8.94%
  MCH: 14.73 ± 0.88 pg
  MCHC: 302 ± 21.82 g/L
  MCV: 51.61 ± 1.84 fL
  Mon#: 0.16±0.07 10^9/L
  Mon%: 3.75±0.94%
  PDW: 16.65±0.35
  PLT: 891.6±337.3 10^9/L
  RBC: 7.51±1.44 10^12/L
  RDW: 17.56±1.04%
  T-BIL: 21.14 ± 1.87 µmol/L
  T-CHO: 3.12 ± 1.33 mmol/L
  TBA: 12.75 ± 1.54 µmol/L
  TG: 2.11 ± 0.45 mmol/L
  UA: 182.61 ± 23.8 µmol/L
  WBC: 4.25±1.11 10^9/L
  γ-GT: 2.75±0.81 U/L
